How the values were obtained:
V600EBRAF = biological target: T1, V600EBRAF (Homo sapiens, UniProt P15056, V600E); experiment: Reaction Biology kinase HotSpot enzyme assay; assay type: biochemical; settings: 1 µM ATP; for IC50: mean ± S.D. of two separate experiments; for % Inhibition at 1 µM over V600EBRAF / inhibition at 1 µM: single dose 1 µM, mean ± S.D. of two experiments; for inhibition at 1 µM: read-out: % Inhibition at 1 µM over V600EBRAF
T1 construct: purchased Reaction Biology Corp. (Kinase HotSpot service)
T1 sequence (P15056 whole entry V600E): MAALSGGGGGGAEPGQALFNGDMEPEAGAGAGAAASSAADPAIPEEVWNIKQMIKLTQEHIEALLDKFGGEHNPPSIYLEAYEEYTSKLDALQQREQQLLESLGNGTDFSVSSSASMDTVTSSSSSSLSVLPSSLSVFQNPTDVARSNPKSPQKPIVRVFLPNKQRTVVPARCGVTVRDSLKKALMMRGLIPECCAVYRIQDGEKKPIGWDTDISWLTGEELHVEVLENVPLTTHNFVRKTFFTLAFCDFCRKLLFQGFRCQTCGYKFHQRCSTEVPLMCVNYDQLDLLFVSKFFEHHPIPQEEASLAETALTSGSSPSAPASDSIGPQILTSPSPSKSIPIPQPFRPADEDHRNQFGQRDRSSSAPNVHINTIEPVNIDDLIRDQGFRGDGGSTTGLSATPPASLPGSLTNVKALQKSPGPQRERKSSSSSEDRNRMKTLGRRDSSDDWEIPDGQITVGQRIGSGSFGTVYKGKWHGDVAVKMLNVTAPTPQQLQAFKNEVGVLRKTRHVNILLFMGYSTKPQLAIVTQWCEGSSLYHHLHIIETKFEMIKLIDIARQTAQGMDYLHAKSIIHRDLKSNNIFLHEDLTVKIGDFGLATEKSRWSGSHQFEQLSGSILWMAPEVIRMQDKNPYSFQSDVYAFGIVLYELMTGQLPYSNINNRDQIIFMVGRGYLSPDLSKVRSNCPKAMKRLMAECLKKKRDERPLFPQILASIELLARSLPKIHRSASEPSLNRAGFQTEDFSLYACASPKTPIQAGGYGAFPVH
Method: Reaction Biology Corp. Kinase HotSpotTM service
Proﬁler Express for IC50 measurement. Assay protocol: In a ﬁnal reaction volume of 25 μL, kinase (5–10 mU) is incubated with 25 mM Tris pH 7.5, 0.02 mM EGTA, 0.66 mg/mL myelin basic protein, 10 mM magnesium acetate and [γ33P-ATP] (speciﬁc activity approx. 500 cpm/pmol, concentration as required). The reaction is initiated by the addition of the Mg-ATP mix. After incubation for 40 min at room temperature, the reaction is stopped by the addition of 5 μL of a 3% phosphoric acid solution. 10 μL of the reaction is then spotted onto a P30 ﬁltermat, and washed three times for 5 min in 75 mM phosphoric acid and once in methanol prior to drying and scintillation counting.

786-0 = experiment: NCI 60 cell line screen; assay type: cell-based; settings: Homo sapiens; 786-0, Renal Cancer; read-out: Percent growth
Method: (§1) Anticancer profiling over a panel of 60 cancer cell lines was carried out at the National Cancer Institute (NCI), Bethesda, Maryland, USA, https://dtp.cancer.gov/discovery_development/nci-60/methodology.htm (Last visit 22 September 2021), using the standard procedure (detailed procedure is located in the Supplementary Information page 50 s).
(§2) NCI standard procedure for 60 cell lines assay
(§3) The human tumor cell lines of the cancer screening panel are grown in RPMI 1640 mediu m containing 5% fetal bovine serum and 2 mM L-glutamine. For a typical screening experiment, cells are inoculated into 96 well microtiter plates in 100 μL at plating densities ranging from 5,000 to 40,000 cells/well depending on the doubling time of individual cell lines. After cell inoculation, the microtiter plates are incubated at 37° C, 5 % CO2, 95 % air and 100 % relative humidity for 24 h prior to addition of experimental drugs.
(§4) After 24 h, two plates of each cell line are fixed in situ with TCA, to represent a measurement of the cell population for each cell line at the time of drug addition (Tz). Experimental drugs are solubilized in dimethyl sulfoxide at 400-fold the desired final maximum test concentration (10 µM) and stored frozen prior to use. At the time of drug addition, an aliquot of frozen concentrate is thawed and diluted to twice the desired final maximum test concentration with co mp lete medium containing 50 μg/ml gentamicin. Additional four, 10-fold or ½ log serial dilutions are made to provide a total of five drug concentrations plus control. Aliquots of 100 μl of these different drug dilutions are added to the appropriate microtiter wells already containing 100 μl of medium, resulting in the required final drug concentrations.
(§5) Following drug addition, the plates are incubated for an additional 48 h at 37°C, 5 % CO2, 95 % air, and 100 % relative humidity. For adherent cells, the assay is terminated by the addition of cold TCA. Cells are fixed in situ by the gentle addition of 50 μl of cold 50 % (w/v) TCA (final concentration, 10 % TCA) and incubated for 60 minutes at 4°C. The supernatant is discarded, and the plates are washed five times with tap water and air dried. Sulforhodamine B (SRB) solution (100 μl) at 0.4 % (w/v) in 1 % acetic acid is added to each well, and plates are incubated for 10 minutes at room temperature. After staining, unbound dye is removed by washing five times with 1 % acetic acid and the plates are air dried. Bound stain is subsequently solubilized with 10 mM trizma base, and the absorbance is read on an automated plate reader at a wavelength of 515 nm. For suspension cells, the methodology is the same except that the assay is terminated by fixing settled cells at the bottom of the wells by g ently adding 50 μl of 80 % TCA (final concentration, 16 % TCA). Using the seven absorbance measurements [time zero, (Tz), control growth, (C), and test growth in the presence of drug at the five concentration levels (Ti)], the percentage growth is calculated at each of the drug concentrations levels. Percentage growth inhibition is calculated as:
(§6) [(Ti-Tz)/(C-Tz)] x 100 for concentrations for which Ti>/=Tz
(§7) [(Ti-Tz)/Tz] x 100 for concentrations for which Ti<Tz.
(§8) Three dose response parameters are calculated for each experimental agent. Growth inhibition of […]
(§9) resulting in a 50% reduction in the net protein increase (as measured by SRB staining) in control cells during the drug incubation. The drug concentration resulting in total growth inhibition […]
(§10) (TGI) is calculated from Ti = Tz.

ACHN = experiment: NCI 60 cell line screen; assay type: cell-based; settings: Homo sapiens, Renal Cancer, read-out: Percent growth
Method: as §1, §2, §3, §4, §5, §6, §7, §8, §9, §10

BT-549 = experiment: NCI 60 cell line screen; assay type: cell-based; settings: Homo sapiens; BT-549, Breast Cancer; read-out: Percent growth
Method: as §1, §2, §3, §4, §5, §6, §7, §8, §9, §10

HCC-2998 = experiment: NCI 60 cell line screen; assay type: cell-based; settings: Homo sapiens; HCC-2998, Colon Cancer; read-out: Percent growth
Method: as §1, §2, §3, §4, §5, §6, §7, §8, §9, §10

HL-60(TB) = experiment: NCI 60 cell line screen; assay type: cell-based; settings: Homo sapiens, Leukemia, read-out: Percent growth
Method: as §1, §2, §3, §4, §5, §6, §7, §8, §9, §10

IGROV1 = experiment: NCI 60 cell line screen; assay type: cell-based; settings: Homo sapiens, IGROV-1; IGROV1, Ovarian Cancer; read-out: Percent growth
Method: as §1, §2, §3, §4, §5, §6, §7, §8, §9, §10

LOX IMVI = experiment: NCI 60 cell line screen; assay type: cell-based; settings: Homo sapiens, Melanoma, read-out: Percent growth
Method: as §1, §2, §3, §4, §5, §6, §7, §8, §9, §10

MALME-3M = experiment: NCI 60 cell line screen; assay type: cell-based; settings: Homo sapiens, Melanoma, read-out: Percent growth
Method: as §1, §2, §3, §4, §5, §6, §7, §8, §9, §10

MDA-MB-231/ATCC = experiment: NCI 60 cell line screen; assay type: cell-based; settings: Homo sapiens, Breast Cancer, read-out: Percent growth
Method: as §1, §2, §3, §4, §5, §6, §7, §8, §9, §10

NCI-H322M = experiment: NCI 60 cell line screen; assay type: cell-based; settings: Homo sapiens, Non-Small Cell Lung Cancer, read-out: Percent growth
Method: as §1, §2, §3, §4, §5, §6, §7, §8, §9, §10

OVCAR-5 = experiment: NCI 60 cell line screen; assay type: cell-based; settings: Homo sapiens; OVCAR-5, Ovarian Cancer; read-out: Percent growth
Method: as §1, §2, §3, §4, §5, §6, §7, §8, §9, §10

OVCAR-8 = experiment: NCI 60 cell line screen; assay type: cell-based; settings: Homo sapiens; OVCAR-8, Ovarian Cancer; read-out: Percent growth
Method: as §1, §2, §3, §4, §5, §6, §7, §8, §9, §10

SF-539 = experiment: NCI 60 cell line screen; assay type: cell-based; settings: Homo sapiens; SF-539, CNS-Cancer; read-out: Percent growth
Method: as §1, §2, §3, §4, §5, §6, §7, §8, §9, §10

SK-MEL-28 = experiment: NCI 60 cell line screen; assay type: cell-based; settings: Homo sapiens; SK-MEL-28, Melanoma; read-out: Percent growth
Method: as §1, §2, §3, §4, §5, §6, §7, §8, §9, §10

SK-MEL-2 = experiment: NCI 60 cell line screen; assay type: cell-based; settings: Homo sapiens; SK-MEL-2, Melanoma; read-out: Percent growth
Method: as §1, §2, §3, §4, §5, §6, §7, §8, §9, §10

UACC-62 = experiment: NCI 60 cell line screen; assay type: cell-based; settings: Homo sapiens; UACC-62, Melanoma; read-out: Percent growth
Method: as §1, §2, §3, §4, §5, §6, §7, §8, §9, §10

SMILES	IC50 (V600EBRAF) [nM]	% Inhibition at 1 µM over V600EBRAF (V600EBRAF) [%]	inhibition at 1 µM (V600EBRAF) [%]	activity at 10 µM (786-0) [%]	activity at 10 µM (ACHN) [%]	activity at 10 µM (BT-549) [%]	activity at 10 µM (HCC-2998) [%]	activity at 10 µM (HL-60(TB)) [%]	activity at 10 µM (IGROV1) [%]	activity at 10 µM (LOX IMVI) [%]	activity at 10 µM (MALME-3M) [%]	activity at 10 µM (MDA-MB-231/ATCC) [%]	activity at 10 µM (NCI-H322M) [%]	activity at 10 µM (OVCAR-5) [%]	activity at 10 µM (OVCAR-8) [%]	activity at 10 µM (SF-539) [%]	activity at 10 µM (SK-MEL-28) [%]	activity at 10 µM (SK-MEL-2) [%]	activity at 10 µM (UACC-62) [%]
O=S(=O)(NCCCNc1nccc(-n2cnc3ccccc32)n1)c1ccc(C(F)(F)F)cc1 [12l, N-(3-((4-(1H-benzo [d]imidazol-1-yl)pyrimidin-2-yl)amino)propyl)-4-(trifluoromethyl) benzenesulfonamide]	490 ± 61	98.75 ± 0.58	99	77.2	79	62.9	84.8	89	74.3	72.3	94	68.7	89.9	87.2	60	74.5	103	91	64.1
Cc1ccc(S(=O)(=O)NCCNc2nccc(-n3cnc4ccccc43)n2)cc1 [12g, N-(2-((4-(1H-benzo [d]imidazol-1-yl)pyrimidin-2-yl)amino)ethyl)-4-methyl benzenesulfonamide]	790 ± 42	82.11 ± 0.32	82	85.4	73	63.7	93.1	91.2	75.2	75.2	90.2	62.5	94.4	87.8	79.8	79.7	94.4	87.7	53
O=S(=O)(NCCNc1nccc(-n2cnc3ccccc32)n1)c1ccc(C(F)(F)F)cc1 [12e, N-(2-((4-(1H-benzo [d]imidazol-1-yl)pyrimidin-2-yl)amino)ethyl)-4-(trifluoromethyl)benzenesulfonamide]	620 ± 31	98.24 ± 0.44	98	69.7	60.8	53.1	80.5	73.8	66.4	57.4	71.4	64	85.3	86.2	63.5	64.8	77.2	67.8	42.4
O=S(=O)(NCCCNc1nccc(-n2cnc3ccccc32)n1)c1cccc2ccccc12 [12n, N-(3-((4-(1H-benzo [d]imidazol-1-yl)pyrimidin-2-yl)amino)propyl)naphthalene-1-sulfonamide]	1280 ± 144	41.27 ± 0.46	41	91.2	87.1	88.2	112	101	98.1	85.6	98.4	83.1	103	96.3	82.5	87.9	103	97.8	62
O=S(=O)(NCCNc1nccc(-n2cnc3ccccc32)n1)c1ccc(Cl)cc1 [12c, N-(2-((4-(1H-benzo [d]imidazol-1-yl)pyrimidin-2-yl)amino)ethyl)-4-chlorobenzenesulfonamide]	820 ± 24	70.55 ± 0.71	71	99	96.4	99.3	101	113	98.2	93.5	99.5	90.5	95.3	91.7	102	91.2	101	109	86.4
O=S(=O)(NCCCNc1nccc(-n2cnc3ccccc32)n1)c1ccc(F)cc1 [12i, N-(3-((4-(1H-benzo [d]imidazol-1-yl)pyrimidin-2-yl)amino)propyl)-4-fluorobenzenesulfonamide]	530 ± 22	97.81 ± 0.82	98	97.7	81.2	34.9	102	90.9	91.8	74	86.1	74.4	99.5	98.6	62.5	86.2	97.9	85.8	61.6
O=S(=O)(NCCCNc1nccc(-n2cnc3ccccc32)n1)c1ccccc1 [12h, N-(3-((4-(1H-benzo [d]imidazol-1-yl)pyrimidin-2-yl)amino)propyl)benzenesulfonamide]	1120 ± 98	49.54 ± 0.61	50	98.8	95.7	96.5	107	104	107	91.7	108	92.4	109	99.1	84	89.4	105	108	85

From article PMC8508980, “Design, Synthesis and Anticancer Profile of New 4-(1H-benzo[d]imidazol-1-yl)pyrimidin-2-amine-Linked Sulfonamide Derivatives with V600EBRAF Inhibitory Effect” (International Journal of Molecular Sciences, 2021)
